Test results taken from patent EP2766361B1, “8-CARBAMOYL-2-(2,3-DISUBSTITUTED PYRID-6-YL)-1,2,3,4-TETRAHYDROISOQUINOLINE DERIVATIVES AS APOPTOSIS-INDUCING AGENTS FOR THE TREATMENT OF CANCER AND IMMUNE AND AUTOIMMUNE DISEASES” (priority 2011, dated 2013).

Test system: mouse FL5.12 cells transfected with Bcl-xL
Assay: FL5.12 cellular assay (cell viability, CellTiter-Glo)
Assay type: cell-based
Details: IL-3-depleted, 3% FBS assay media, 24 hours, read-out: FL5.12 Bcl-xL, -IL3, EC50
Experimental: Cell viability was assayed using the CellTiter-Glo assay (Promega Corp., Madison, WI) according to the manufacturer instructions. Individual determinations were the result of duplicate values. […] Table 2. In Vitro Data

Compound	EC50 [nM]
Cc1c(-c2ccc(N3CCc4cccc(C(=O)Nc5nc6ccccc6s5)c4C3)nc2C(=O)NS(C)(=O)=O)cnn1CC12CC3CC(CC(C3)C1)C2 [Example 17, N-(1,3-benzothiazol-2-yl)-2-{6-[(methylsulfonyl)carbamoyl]-5-[5-methyl-1-(tricyclo[3.3.1.1^3,7]dec-1-ylmethyl)-1H-pyrazol-4-yl]pyridin-2-yl}-1,2,3,4-tetrahydroisoquinoline-8-carboxamide]	1
Cc1c(-c2ccc(N3CCc4cccc(C(=O)Nc5nc6ccccc6s5)c4C3)nc2C(=O)O)cnn1CC1C2CC3CC(C2)CC1C3 (stereo not shown) [Example 62, 6-[8-(1,3-benzothiazol-2-ylcarbamoyl)-3,4-dihydroisoquinolin-2(1H)-yl]-3-[5-methyl-1-(tricyclo[3.3.1.1^3,7]dec-2-ylmethyl)-1H-pyrazol-4-yl]pyridine-2-carboxylic acid]	0.8
O=C(Nc1nc2ccccc2s1)c1cccc2c1CN(c1ccc(-c3cnn(CC45CC6CC(C4)CC(OCCN4CCOCC4)(C6)C5)c3)c(C(=O)O)n1)CC2 [Example 26, 6-[8-(1,3-benzothiazol-2-ylcarbamoyl)-3,4-dihydroisoquinolin-2(1H)-yl]-3-[1-({3-[2-(morpholin-4-yl)ethoxy]tricyclo[3.3.1.1^3,7]dec-1-yl}methyl)-1H-pyrazol-4-yl]pyridine-2-carboxylic acid]	243
Cc1nn(CC23CC4CC(CC(C4)C2)C3)c(C)c1-c1ccc(N2CCc3cccc(C(=O)Nc4nc5ccccc5s4)c3C2)nc1C(=O)O [Example 2, 6-[8-(1,3-benzothiazol-2-ylcarbamoyl)-3,4-dihydroisoquinolin-2(1H)-yl]-3-[3,5-dimethyl-1-(tricyclo[3.3.1.1^3,7]dec-1-ylmethyl)-1H-pyrazol-4-yl]pyridine-2-carboxylic acid]	< 1
CC(C)OC12CC3CC(CC(Cn4cc(-c5ccc(N6CCc7cccc(C(=O)Nc8nc9ccccc9s8)c7C6)nc5C(=O)O)cn4)(C3)C1)C2 [Example 12, 6-[8-(1,3-benzothiazol-2-ylcarbamoyl)-3,4-dihydroisoquinolin-2(1H)-yl]-3-(1-{[3-(propan-2-yloxy)tricyclo[3.3.1.1^3,7]dec-1-yl]methyl}-1H-pyrazol-4-yl)pyridine-2-carboxylic acid]	24
COCCOC12CC3CC(CC(Cn4cc(-c5ccc(N6CCc7cccc(C(=O)Nc8nc9ccccc9s8)c7C6)nc5C(=O)O)cn4)(C3)C1)C2 [Example 8, 6-[8-(1,3-benzothiazol-2-ylcarbamoyl)-3,4-dihydroisoquinolin-2(1H)-yl]-3-(1-{[3-(2-methoxyethoxy)tricyclo[3.3.1.1^3,7]dec-1-yl]methyl}-1H-pyrazol-4-yl)pyridine-2-carboxylic acid]	147
COC12CC3CC(CC(Cn4ncc(-c5ccc(N6CCc7cccc(C(=O)Nc8nc9ccccc9s8)c7C6)nc5C(=O)NS(C)(=O)=O)c4C)(C3)C1)C2 [Example 37, N-(1,3-benzothiazol-2-yl)-2-{5-(1-{[3-methoxytricyclo[3.3.1.1^3,7]dec-1-yl]methyl}-5-methyl-1H-pyrazol-4-yl)-6-[(methylsulfonyl)carbamoyl]pyridin-2-yl}-1,2,3,4-tetrahydroisoquinoline-8-carboxamide]	3
O=C(Nc1nc2ccccc2s1)c1cccc2c1CN(c1ccc(-c3ccc(=O)n(CC45CC6CC(CC(C6)C4)C5)c3)c(C(=O)O)n1)CC2 [Example 85, 6-[8-(1,3-benzothiazol-2-ylcarbamoyl)-3,4-dihydroisoquinolin-2(1H)-yl]-6'-oxo-1'-(tricyclo[3.3.1.1^3,7]dec-1-ylmethyl)-1',6'-dihydro-3,3'-bipyridine-2-carboxylic acid]	111
N#Cc1c(NC23CC4CC(CC(C4)C2)C3)cccc1-c1ccc(N2CCc3cccc(C(=O)Nc4nc5ccccc5s4)c3C2)nc1C(=O)O [Example 47, 6-[8-(1,3-benzothiazol-2-ylcarbamoyl)-3,4-dihydroisoquinolin-2(1H)-yl]-3-{2-cyano-3-[tricyclo[3.3.1.1^3,7]dec-1-ylamino]phenyl}pyridine-2-carboxylic acid]	54
O=C(Nc1nc2ccccc2s1)c1cccc2c1CN(c1ccc(-c3cnn(CC4CC5CCC(C4)N5C(=O)OCc4ccccc4)c3)c(C(=O)O)n1)CC2 (stereo not shown) [Example 84, 6-[8-(1,3-benzothiazol-2-ylcarbamoyl)-3,4-dihydroisoquinolin-2(1H)-yl]-3-[1-({8-[(benzyloxy)carbonyl]-8-azabicyclo[3.2.1]oct-3-yl}methyl)-1H-pyrazol-4-yl]pyridine-2-carboxylic acid]	> 1000
Cc1c(-c2ccc(N3CCc4cccc(C(=O)Nc5nc6ccccc6s5)c4C3)nc2C(=O)O)cccc1N(C)C(=O)C12CC3CC(CC(C3)O1)C2 [Example 68, 6-[8-(1,3-benzothiazol-2-ylcarbamoyl)-3,4-dihydroisoquinolin-2(1H)-yl]-3-{2-methyl-3-[methyl(2-oxatricyclo[3.3.1.1^3,7]dec-1-ylcarbonyl)amino]phenyl}pyridine-2-carboxylic acid]	22
COC12CC3CC(CC(Cn4c(C#N)cc(-c5ccc(N6CCc7cccc(C(=O)Nc8nc9ccccc9s8)c7C6)nc5C(=O)O)c4C)(C3)C1)C2 [Example 58, 6-[8-(1,3-benzothiazol-2-ylcarbamoyl)-3,4-dihydroisoquinolin-2(1H)-yl]-3-(5-cyano-1-{[3-methoxytricyclo[3.3.1.1^3,7]dec-1-yl]methyl}-2-methyl-1H-pyrrol-3-yl)pyridine-2-carboxylic acid]	0.3
Cc1c(-c2ccc(N3CCc4cccc(C(=O)Nc5nc6ccccc6s5)c4C3)nc2C(=O)O)ccnc1S(=O)(=O)C12CC3CC(CC(C3)C1)C2 [Example 70, 6-[8-(1,3-benzothiazol-2-ylcarbamoyl)-3,4-dihydroisoquinolin-2(1H)-yl]-3'-methyl-2'-(tricyclo[3.3.1.1^3,7]dec-1-ylsulfonyl)-3,4'-bipyridine-2-carboxylic acid]	72
Cc1c(-c2ccc(N3CCc4cccc(C(=O)Nc5nc6ccccc6s5)c4C3)nc2C(=O)O)cc(C#N)n1CCC12CC3CC(CC(C3)C1)C2 [Example 34, 6-[8-(1,3-benzothiazol-2-ylcarbamoyl)-3,4-dihydroisoquinolin-2(1H)-yl]-3-{5-cyano-2-methyl-1-[2-(tricyclo[3.3.1.1^3,7]dec-1-yl)ethyl]-1H-pyrrol-3-yl}pyridine-2-carboxylic acid]	150
Cc1c(-c2ccc(N3CCc4cccc(C(=O)Nc5nc6ccccc6s5)c4C3)nc2-c2nn[nH]n2)cnn1CC12CC3CC(CC(C3)C1)C2 [Example 19, N-(1,3-benzothiazol-2-yl)-2-{5-[5-methyl-1-(tricyclo[3.3.1.1^3,7]dec-1-ylmethyl)-1H-pyrazol-4-yl]-6-(2H-tetrazol-5-yl)pyridin-2-yl}-1,2,3,4-tetrahydroisoquinoline-8-carboxamide]	3
Cc1c(-c2ccc(N3CCc4cccc(C(=O)Nc5nc6cnccc6s5)c4C3)nc2C(=O)O)cnn1CC12CC3CC(CC(C3)C1)C2 [Example 31, 3-[5-methyl-1-(tricyclo[3.3.1.1^3,7]dec-1-ylmethyl)-1H-pyrazol-4-yl]-6-[8-([1,3]thiazolo[4,5-c]pyridin-2-ylcarbamoyl)-3,4-dihydroisoquinolin-2(1H)-yl]pyridine-2-carboxylic acid]	5
Cc1c(-c2ccc(N3CCc4cccc(C(=O)Nc5nc6ccccc6s5)c4C3)nc2C(=O)O)cnn1CC1(OCCS(C)(=O)=O)CCCCCCC1 [Example 65, 6-[8-(1,3-benzothiazol-2-ylcarbamoyl)-3,4-dihydroisoquinolin-2(1H)-yl]-3-[5-methyl-1-({1-[2-(methylsulfonyl)ethoxy]cyclooctyl}methyl)-1H-pyrazol-4-yl]pyridine-2-carboxylic acid]	1
CC12CC3(C)CC(C)(C1)CC(Cn1cc(-c4ccc(N5CCc6cccc(C(=O)Nc7nc8ccccc8s7)c6C5)nc4C(=O)O)cn1)(C2)C3 [Example 9, 6-[8-(1,3-benzothiazol-2-ylcarbamoyl)-3,4-dihydroisoquinolin-2(1H)-yl]-3-{1-[(3,5,7-trimethyltricyclo[3.3.1.1^3,7]dec-1-yl)methyl]-1H-pyrazol-4-yl}pyridine-2-carboxylic acid]	3
O=C(Nc1nc2ccccc2s1)c1cccc2c1CN(c1ccc(-c3cccc(OCC45CC6CC(CC(C6)C4)C5)c3)c(C(=O)O)n1)CC2 [Example 22, 6-[8-(1,3-benzothiazol-2-ylcarbamoyl)-3,4-dihydroisoquinolin-2(1H)-yl]-3-{3-[tricyclo[3.3.1.1^3,7]dec-1-ylmethoxy]phenyl}pyridine-2-carboxylic acid]	> 1000
Cc1c(-c2ccc(N3CCc4cccc(C(=O)Nc5nc6ccccc6s5)c4C3)nc2C(=O)O)cccc1N(C)CC12CC3CC(CC(C3)C1)C2 [Example 55, 6-[8-(1,3-benzothiazol-2-ylcarbamoyl)-3,4-dihydroisoquinolin-2(1H)-yl]-3-(2-methyl-3-{methyl[tricyclo[3.3.1.1^3,7]dec-1-ylmethyl]amino}phenyl)pyridine-2-carboxylic acid]	47
Cc1c(-c2ccc(N3CCc4cccc(C(=O)Nc5nc6ccccc6s5)c4C3)nc2C(=O)NS(C)(=O)=O)cc(C#N)n1CC12CC3CC(CC(C3)C1)C2 [Example 35, N-(1,3-benzothiazol-2-yl)-2-{5-[5-cyano-2-methyl-1-(tricyclo[3.3.1.1^3,7]dec-1-ylmethyl)-1H-pyrrol-3-yl]-6-[(methylsulfonyl)carbamoyl]pyridin-2-yl}-1,2,3,4-tetrahydroisoquinoline-8-carboxamide]	1
Cc1c(NC(=O)C23CC4CC(CC(C4)C2)C3)cccc1-c1ccc(N2CCc3cccc(C(=O)Nc4nc5ccccc5s4)c3C2)nc1C(=O)O [Example 50, 6-[8-(1,3-benzothiazol-2-ylcarbamoyl)-3,4-dihydroisoquinolin-2(1H)-yl]-3-(2-methyl-3-{[tricyclo[3.3.1.1^3,7]dec-1-ylcarbonyl]amino}phenyl)pyridine-2-carboxylic acid]	> 1000
